According to US20240383908A1, “SYNTHESIS AND APPLICATION OF PHOSPHATASE DEGRADER” (HINOVA PHARMACEUTICALS INC., priority 2021, published 2024):

Target: T1, SHP2 protein (Homo sapiens, UniProt Q06124)
T1 sequence (Q06124 1-593): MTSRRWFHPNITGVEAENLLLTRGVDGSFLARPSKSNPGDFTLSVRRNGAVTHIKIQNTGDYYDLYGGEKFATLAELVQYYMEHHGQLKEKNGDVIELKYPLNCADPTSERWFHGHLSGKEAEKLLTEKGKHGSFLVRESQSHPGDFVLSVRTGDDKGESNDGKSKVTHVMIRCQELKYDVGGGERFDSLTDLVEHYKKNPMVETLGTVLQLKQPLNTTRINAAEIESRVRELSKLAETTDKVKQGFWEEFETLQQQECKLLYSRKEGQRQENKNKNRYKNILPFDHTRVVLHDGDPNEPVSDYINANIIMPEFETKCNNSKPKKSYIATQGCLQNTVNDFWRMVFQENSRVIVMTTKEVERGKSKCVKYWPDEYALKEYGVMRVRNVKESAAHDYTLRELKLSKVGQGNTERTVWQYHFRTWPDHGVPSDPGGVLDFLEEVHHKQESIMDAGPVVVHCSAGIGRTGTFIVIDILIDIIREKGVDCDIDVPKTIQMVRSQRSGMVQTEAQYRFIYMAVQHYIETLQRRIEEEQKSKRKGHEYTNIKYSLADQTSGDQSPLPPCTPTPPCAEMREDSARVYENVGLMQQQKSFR
Experiment: Degradation activity on SHP2 protein in MV-411 cells (Western blot, DC50)
Type: cell-based
Parameters: endogenous in cells
Settings: MV411 cells, 24 hours, read-out: Degradation activity for differenct cell lines MV411 (DC50)
How it was run: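 Western blot of SHP2 (GAPDH loading control, 30 μg protein/lane) in lysates of MV-411 cells exposed 24 h to final compound concentrations of 100, 10, 3, 1, 0.3 and 0.1 nM (0.1% DMSO). Degradation relative to DMSO set at 100%; DC50 derived by curve fitting.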

| DC50 | Compound |
| --- | --- |
| < 100 nM | CC1(N)CCN(c2cnc(Sc3cccc(NC(=O)CCCCCCCCN4CCN(c5ccc(C(=O)NCc6ccc7c(c6)CN(C6CCC(=O)NC6=O)C7=O)nn5)CC4C(F)(F)F)c3)cn2)CC1 (stereo not drawn) [Compound 174] |
| < 100 nM | CC1(N)CCN(c2cnc(Sc3cccc(NC(=O)CCCCCCCCN4CCN(c5ccc(C(=O)NCc6ccc7c(c6)CN(C6CCC(=O)NC6=O)C7=O)nn5)CC4)c3)cn2)CC1 (stereo not drawn) [Compound 63] |
| < 100 nM | Cc1ncsc1-c1ccc([C@H](C)NC(=O)[C@@H]2C[C@@H](O)CN2C(=O)[C@@H](NC(=O)CCCCCCCCN2CCN(C(=O)CCC(=O)Nc3cccc(Sc4ncc(N5CCC(C)(N)CC5)nc4N)c3Cl)CC2)C(C)(C)C)cc1 [Compound 999] |

The next lines start with the molecule.

| Compound | DC50 |
| --- | --- |
| CC1(N)CCN(c2cnc(Sc3cccc(NC(=O)CCCCCCCCN4C5CCC4CN(c4ccc(C(=O)NCc6ccc7c(c6)CN(C6CCC(=O)NC6=O)C7=O)nn4)C5)c3)cn2)CC1 (stereo not drawn) [Compound 119] | < 100 nM |
| NC1(CO)CCN(c2cnc(Sc3cccc(NC(=O)CCCCCCN4CC5(CCN(c6ccc(C(=O)NCc7ccc8c(c7)CN(C7CCC(=O)NC7=O)C8=O)nn6)C5)C4)c3)cn2)CC1 (stereo not drawn) [Compound 168] | < 100 nM |
| CCC1(N)CCN(c2cnc(Sc3cccc(NC(=O)CCCCCCN4CC5(CCN(c6ccc(C(=O)NCc7ccc8c(c7)CN(C7CCC(=O)NC7=O)C8=O)nn6)C5)C4)c3)cn2)CC1 (stereo not drawn) [Compound 161] | < 100 nM |
